According to the NIST ThermoML archive (doi:10.1021/je5008394):

Conditions: dynamic light scattering

COC(C)(C)C [2-methoxy-2-methylpropane]
thermal diffusivity [m2/s]
Conditions	Gas	Liquid
303.15 K, 101.33 kPa	–	6.4e-08
303.15 K, 1500 kPa	–	6.66e-08
303.15 K, 2500 kPa	–	6.7e-08
303.15 K, 4000 kPa	–	6.75e-08
303.15 K, 5500 kPa	–	6.79e-08
303.15 K, 7000 kPa	–	6.81e-08
303.15 K, 8500 kPa	–	6.83e-08
303.15 K, 10000 kPa	–	6.85e-08
313.15 K, 101.33 kPa	–	6.17e-08
318.15 K, 1500 kPa	–	6.29e-08
318.15 K, 2500 kPa	–	6.32e-08
318.15 K, 4000 kPa	–	6.37e-08
318.15 K, 5500 kPa	–	6.4e-08
318.15 K, 7000 kPa	–	6.44e-08
318.15 K, 8500 kPa	–	6.47e-08
318.15 K, 10000 kPa	–	6.49e-08
323.15 K, 101.33 kPa	–	5.87e-08
333.15 K, 101.33 kPa	–	5.7e-08
333.15 K, 1500 kPa	–	5.94e-08
333.15 K, 2500 kPa	–	5.97e-08
333.15 K, 4000 kPa	–	6e-08
333.15 K, 5500 kPa	–	6.05e-08
333.15 K, 7000 kPa	–	6.09e-08
333.15 K, 8500 kPa	–	6.15e-08
333.15 K, 10000 kPa	–	6.21e-08
343.15 K, 101.33 kPa	–	5.42e-08
348.15 K, 1500 kPa	–	5.62e-08
348.15 K, 2500 kPa	–	5.63e-08
348.15 K, 4000 kPa	–	5.68e-08
348.15 K, 5500 kPa	–	5.72e-08
348.15 K, 7000 kPa	–	5.78e-08
348.15 K, 8500 kPa	–	5.85e-08
348.15 K, 10000 kPa	–	5.92e-08
353.15 K, 101.33 kPa	–	5.26e-08
363.15 K, 101.33 kPa	–	5.05e-08
363.15 K, 1500 kPa	–	5.33e-08
363.15 K, 2500 kPa	–	5.34e-08
363.15 K, 4000 kPa	–	5.38e-08
363.15 K, 5500 kPa	–	5.43e-08
363.15 K, 7000 kPa	–	5.5e-08
363.15 K, 8500 kPa	–	5.57e-08
363.15 K, 10000 kPa	–	5.68e-08
373.15 K, 101.33 kPa	–	4.83e-08
378.15 K, 1500 kPa	–	5.06e-08
378.15 K, 2500 kPa	–	5.07e-08
378.15 K, 4000 kPa	–	5.1e-08
378.15 K, 5500 kPa	–	5.15e-08
378.15 K, 7000 kPa	–	5.23e-08
378.15 K, 8500 kPa	–	5.32e-08
378.15 K, 10000 kPa	–	5.44e-08
383.15 K, 101.33 kPa	–	4.72e-08
393.15 K, 101.33 kPa	–	4.64e-08
393.15 K, 1500 kPa	–	4.83e-08
393.15 K, 2500 kPa	–	4.83e-08
393.15 K, 4000 kPa	–	4.86e-08
393.15 K, 5500 kPa	–	4.92e-08
393.15 K, 7000 kPa	–	4.99e-08
393.15 K, 8500 kPa	–	5.09e-08
393.15 K, 10000 kPa	–	5.21e-08
403.15 K, 101.33 kPa	–	4.55e-08
403.15 K, 1500 kPa	–	4.68e-08
403.15 K, 2500 kPa	–	4.69e-08
403.15 K, 4000 kPa	–	4.71e-08
403.15 K, 5500 kPa	–	4.77e-08
403.15 K, 7000 kPa	–	4.85e-08
403.15 K, 8500 kPa	–	4.95e-08
403.15 K, 10000 kPa	–	5.08e-08
413.1 K, 1500 kPa	–	4.54e-08
413.1 K, 2500 kPa	–	4.55e-08
413.1 K, 4000 kPa	–	4.58e-08
413.1 K, 5500 kPa	–	4.64e-08
413.1 K, 7000 kPa	–	4.72e-08
413.1 K, 8500 kPa	–	4.82e-08
413.1 K, 10000 kPa	–	4.95e-08
413.15 K, 101.33 kPa	–	4.48e-08
423.15 K, 101.33 kPa	–	4.38e-08
423.15 K, 1500 kPa	–	4.42e-08
423.15 K, 2500 kPa	–	4.43e-08
423.15 K, 4000 kPa	–	4.46e-08
423.15 K, 5500 kPa	–	4.51e-08
423.15 K, 7000 kPa	–	4.59e-08
423.15 K, 8500 kPa	–	4.7e-08
423.15 K, 10000 kPa	–	4.83e-08
433.15 K, 101.33 kPa	–	4.31e-08
433.15 K, 1500 kPa	–	4.32e-08
433.15 K, 2500 kPa	–	4.32e-08
433.15 K, 4000 kPa	–	4.36e-08
433.15 K, 5500 kPa	–	4.41e-08
433.15 K, 7000 kPa	–	4.49e-08
433.15 K, 8500 kPa	–	4.59e-08
433.15 K, 10000 kPa	–	4.72e-08
443.15 K, 101.33 kPa	–	4.18e-08
443.15 K, 2500 kPa	–	4.23e-08
443.15 K, 4000 kPa	–	4.26e-08
443.15 K, 5500 kPa	–	4.31e-08
443.15 K, 7000 kPa	–	4.39e-08
443.15 K, 8500 kPa	–	4.49e-08
443.15 K, 10000 kPa	–	4.61e-08
453.15 K, 101.33 kPa	2.36e-07	4.05e-08
453.15 K, 2500 kPa	–	4.15e-08
453.15 K, 4000 kPa	–	4.18e-08
453.15 K, 5500 kPa	–	4.23e-08
453.15 K, 7000 kPa	–	4.3e-08
453.15 K, 8500 kPa	–	4.4e-08
453.15 K, 10000 kPa	–	4.51e-08
455.15 K, 101.33 kPa	2.06e-07	–
457.15 K, 101.33 kPa	1.87e-07	–
458.15 K, 101.33 kPa	–	3.91e-08
458.15 K, 2500 kPa	–	4.11e-08
458.15 K, 4000 kPa	–	4.15e-08
458.15 K, 5500 kPa	–	4.2e-08
458.15 K, 7000 kPa	–	4.27e-08
458.15 K, 8500 kPa	–	4.36e-08
458.15 K, 10000 kPa	–	4.47e-08
459.15 K, 101.33 kPa	1.72e-07	–
461.15 K, 101.33 kPa	1.62e-07	–
463.15 K, 101.33 kPa	1.54e-07	3.86e-08
463.15 K, 2500 kPa	–	4.08e-08
463.15 K, 4000 kPa	–	4.11e-08
463.15 K, 5500 kPa	–	4.16e-08
463.15 K, 7000 kPa	–	4.23e-08
463.15 K, 8500 kPa	–	4.32e-08
463.15 K, 10000 kPa	–	4.43e-08
465.15 K, 101.33 kPa	1.47e-07	–
467.15 K, 101.33 kPa	1.38e-07	–
468.15 K, 101.33 kPa	–	3.66e-08
468.15 K, 2500 kPa	–	4.05e-08
468.15 K, 4000 kPa	–	4.09e-08
468.15 K, 5500 kPa	–	4.14e-08
468.15 K, 7000 kPa	–	4.2e-08
468.15 K, 8500 kPa	–	4.28e-08
468.15 K, 10000 kPa	–	4.38e-08
469.15 K, 101.33 kPa	1.31e-07	–
471.15 K, 101.33 kPa	1.22e-07	–
473.15 K, 101.33 kPa	1.14e-07	3.55e-08
473.15 K, 2500 kPa	–	4.02e-08
473.15 K, 4000 kPa	–	4.06e-08
473.15 K, 5500 kPa	–	4.11e-08
473.15 K, 7000 kPa	–	4.18e-08
473.15 K, 8500 kPa	–	4.25e-08
473.15 K, 10000 kPa	–	4.34e-08
475.15 K, 101.33 kPa	1.05e-07	3.47e-08
477.15 K, 101.33 kPa	9.7e-08	3.36e-08
479.15 K, 101.33 kPa	8.8e-08	3.36e-08
481.15 K, 101.33 kPa	7.8e-08	3.3e-08
483.15 K, 101.33 kPa	7e-08	3.22e-08
483.15 K, 4000 kPa	–	4.02e-08
483.15 K, 5500 kPa	–	4.07e-08
483.15 K, 7000 kPa	–	4.12e-08
483.15 K, 8500 kPa	–	4.19e-08
483.15 K, 10000 kPa	–	4.27e-08
485.15 K, 101.33 kPa	6.2e-08	3.07e-08
487.15 K, 101.33 kPa	5.6e-08	3.02e-08
489.15 K, 101.33 kPa	5e-08	2.95e-08
491.15 K, 101.33 kPa	4.3e-08	2.81e-08
493.15 K, 101.33 kPa	3.1e-08	2.73e-08
493.15 K, 4000 kPa	–	3.99e-08
493.15 K, 5500 kPa	–	4.03e-08
493.15 K, 7000 kPa	–	4.08e-08
493.15 K, 8500 kPa	–	4.14e-08
493.15 K, 10000 kPa	–	4.21e-08
